Test results: patent publication US10874637B2, “Methods and pharmaceutical compositions for the treatment of neurodegeneration with brain iron accumulation” (INSERM (Institut National de la Santé et de la Recherche …, priority 2016, dated 2020)
“Also recorded” adds a separate entry of the source.

Tests used:
[1] = test system: liver and ovarian cancer; conditions: via induction of TfR1 palmitoylation and reduction of its cell-surface levels; cited from earlier work
[2] = test system: TfR1; experiment: TfR1 palmitoylation assay in cultured skin fibroblasts (fatty acyl exchange chemistry); format: cell-based, human; conditions: control and NBIA fibroblasts, 25 μM artesunate for 48 h
Description: Skin fibroblasts were isolated from patients 1-2 and from four NBIA patients carrying biallelic PANK2, PLA2G6, C19ORF12 and FA2H mutations (Supplementary Table 2). Fibroblasts were grown in DMEM (Life technologies) medium supplemented with 10% fetal beef serum (FBS), 2 mM L-glutamine, 2.5 mM pyruvate, 100 μg/ml streptomycin, 100 U/ml penicillin at 37° C. For treatment with ferric ammonium citrate (FAC), 90% confluent cells were incubated for 72 h with or without 100 μM FAC in serum-free DMEM (i.e. Tf free). HeLa cells were grown in the same medium. TfR1 palmitoylation in cultured skin fibroblasts was modified from^15. Briefly, cells were lysed on ice in a DTT-free cell lysis buffer and endogenous TfR1 was immunoprecipitated with mouse anti-TfR1 antibody (Zymed) with protein G magnetic beads (Biorad). After washing with PBS, beads were incubated overnight with 50 mM N-ethylmaleimide (NEM) at 4° C., washed 3 times with PBS and then incubated with 1 M hydroxylamine (HA) at room temperature for 2 hours. After three washes, the beads were incubated with 50 mM HPDP-Biotin (Thermo) in dark for 2 hours. Biotin-labeled TfR1 level was determined by immunoblotting in non-reducing conditions using a goat anti-biotin antibody (Thermo) while immunoblotting with rabbit anti-TfR1 antibody (Abcam) was used as loading control.

[3] = test system: ferritin (FTH); experiment: Western blot of ferritin (FTH) steady state levels in fibroblasts; format: cell-based, human; conditions: control and NBIA fibroblasts, artesunate treatment (25 μM, 48 h)
Description: Skin fibroblasts were isolated from patients 1-2 and from four NBIA patients carrying biallelic PANK2, PLA2G6, C19ORF12 and FA2H mutations (Supplementary Table 2). Fibroblasts were grown in DMEM (Life technologies) medium supplemented with 10% fetal beef serum (FBS), 2 mM L-glutamine, 2.5 mM pyruvate, 100 μg/ml streptomycin, 100 U/ml penicillin at 37° C. For treatment with ferric ammonium citrate (FAC), 90% confluent cells were incubated for 72 h with or without 100 μM FAC in serum-free DMEM (i.e. Tf free). HeLa cells were grown in the same medium. Cultured skin fibroblasts or HeLa cells were harvested on ice by scraping in reducing or non-reducing cell lysis buffer. SDS-PAGE was performed on whole-cell protein extracts. Immunodetections were performed in PBS with 5% milk, 0.05 Tween20 (SIGMA) using the following antibodies: rabbit anti-CRAT (HPA022815, Sigma), rabbit anti-ACOT8 (SAB4500009 SIGMA), mouse anti-REPS1 (ab69221), mouse anti-SOD1 (ab86454), mouse anti-TfR1 (Zymed 136890), rabbit anti-ferritin (ab75973), rabbit anti-IRP1 (ab126595), rabbit anti-IRP2 (ab80339), mouse anti-GRIM19 (ab110240), rabbit anti-catalase (ab16731), rabbit anti-FBXLS (ab140175), rabbit anti-LC3B (ab51520) and mouse anti-actin antibodies (ab8226). […]

[4] = test system: iron amount; conditions: treatment increasing TfR1 palmitoylation; cited from earlier work

| Compound | liver and ovarian cancer growth [1] | TfR1 palmitoylation [2] | ferritin (FTH) steady state levels (indicator of iron content) [3] | iron amount [4] |
| --- | --- | --- | --- | --- |
| C[C@H]1[C@H](OC(=O)CCC(=O)O)O[C@@H]2O[C@@]3(C)CC[C@H]4[C@H](C)CC[C@@H]1[C@@]24OO3 [artesunate, (3R,5aS,6R,8aS,9R,10S,12R,12aR)-Decahydro-3,6,9-trimethyl-3,12-epoxy-12H-pyrano [4,3-j]-1,2-benzodioxepin-10-ol, hydrogen succinate] | inhibit liver and ovarian cancer growth | enhanced TfR1 palmitoylation; also recorded: improved TfR1 palmitoylation | decreased ferritin steady state level |  |
| dihydroartesunate |  |  |  | reduces iron amount |
